Source: patent publication US20070092925A1, “Method of treating skin by delivering specific protein stabilizers/protectors to skin proteins and methods of selecting said stabilizers” (Conopco, Inc., d/b/a UNILEVER, priority 2005, published 2007)
“Also recorded” adds a separate entry of the source.

Columns and labels:
[1] = target: T1, trypsin from bovine pancreas (Bos taurus, UniProt P00760); assay: trypsin autolysis followed by fluorescence spectroscopy (ratio R versus time, FIG. 2); assay type: biochemical; conditions: 0.1 M TRIS buffer pH 7.5, compared with water
T1 construct: purchased Sigma; host or cells: bovine pancreas
T1 sequence (P00760 24-246): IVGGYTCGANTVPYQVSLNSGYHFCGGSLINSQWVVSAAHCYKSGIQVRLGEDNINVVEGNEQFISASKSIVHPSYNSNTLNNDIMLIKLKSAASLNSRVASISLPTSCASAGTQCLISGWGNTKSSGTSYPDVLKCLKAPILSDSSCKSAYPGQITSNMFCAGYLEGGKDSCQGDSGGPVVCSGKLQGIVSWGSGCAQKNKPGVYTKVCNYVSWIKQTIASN
Text: (§1) The process of serine protease (e.g., trypsin) autolysis can be followed by using fluorescence spectroscopy. […] Consequently, the autolysis of trypsin and subsequent unfolding is accompanied by spectral changes that can be detected by obtaining fluorescence spectra at various time points after preparing a fresh solution of trypsin.
(§2) The iso-emissive points (fluorescence intensity independent of time) at 305 nm and 360 nm are typical of a situation where one fluorescent component (native protein) is the source of the other fluorescent component(s) (denatured protein and cleaved fragments). Applicants quantified the change in the trypsin spectrum by taking a ratio, R, of the area between 320 nm and 330 nm and the area between 380 nm and 400 nm: [formula]
(§3) The numerator represents the relative amount of native protein in the sample and the denominator represents relative amount of denatured protein and cleaved fragments. R therefore is a measure of how far the autolysis process has progressed.
(§4) Protocol—Fresh solutions of trypsin (2.5 mg/ml) were prepared by mixing the appropriate amount of solid trypsin from bovine pancreas (Sigma) with appropriate amounts of buffer solution (1M, pH 7.5; VWR), water, and protein stabilizing compound (pyrollidone carboxylic acid—Sigma Ultrapure; trimethylamine N-oxide—Fluka Purum; glycerin—J.T. Baker; 1-Propanaminium, 2,3-dihydroxy-N,N,N-trimethyl-, chloride—synthesized and purified in house), and/or protein destabilizing compound (urea—J.T. Baker Ultrapure Bioreagent); sodium dodecyl sulfate—ICN Ultrapure). All chemicals were used as supplied. Within minutes of dissolving the solid trypsin the solution was transferred into a quartz fluorescence cuvette and placed inside a Perkin Elmer LS 50 B fluorescence spectrometer. Fluorescence spectra were subsequently measured, either every 5 minutes or every 10 minutes. The excitation wavelength was 280 nm.
A seen in FIG. 2, applicants plotted trypsin autolysis as followed by fluorescence spectroscopy in various media with 0.1 M TRIS buffer pH 7.5. These media include: 0.5 M PCA, i.e., pyrollidone carboxylic acid (closed triangles); 1 M TMAO (closed diamonds); 1 M glycerol (closed circles); 1M 1-propanaminium, 2,3-dihydroxy-N,N,N-trimethyl-,chloride (crosses); water (closed squares); 1 M urea (open triangles); and 0.5 mM SDS, i.e., sodium dodecyl sulphate (open circles).
The ability of various compounds or combinations of compounds to increase or depress the rate of trypsin autolysis can be compared by plotting R as a function of time as is shown, for example, in FIG. 2.

[2] = target: T1, trypsin from bovine pancreas; assay: trypsin autolysis followed by fluorescence spectroscopy in the presence of the denaturant SDS (FIG. 3); assay type: biochemical
Text: as §1, §2, §3, §4
For reference purposes, also shown are autolysis traces in the presence of 0.5 mM SDS without any protein stabilizer (open squares) and without any SDS or protein stabilizer (closed squares).

[3] = 1.0 M stabilizer plus 0.5 mM SDS

Structure (SMILES) | rate of trypsin autolysis (R as a function of time) ([1]; […] compound) | rate of trypsin autolysis in the presence of SDS [2, 3] | also measured
OCC(O)CO [glycerol] | significantly reduces the rate of trypsin autolysis | able to “protect” proteins against a denaturing force | –
C[N+](C)(C)CC(O)CO.[Cl-] (stereo not drawn) [1-Propanaminium, 2,3-dihydroxy-N,N,N-trimethyl-, chloride] | exceed that of both glycerol and TMAO | – | –
O=C1CC[C@@H](C(=O)O)N1 [PCA, pyrollidone carboxylic acid] | – | – | rate of trypsin autolysis (R as a function of time) ([1]; 0.5 M compound): virtual absence of autolysis; also recorded: by far the strongest ability of any of the compounds tested to stabilize trypsin; rate of trypsin autolysis in the presence of SDS ([2]; 0.5 M stabilizer plus 0.5 mM SDS): able to “protect” proteins against a denaturing force; also recorded: still slower than in the absence of both SDS and a protein stabilizer
C[N+](C)(C)[O-] [TMAO, trimethylamine N-oxide] | exceeds glycerol in its ability to stabilize trypsin against autolysis | able to “protect” proteins against a denaturing force; also recorded: still slower than in the absence of both SDS and a protein stabilizer | –
NC(N)=O [urea] | significant increase in the rate of trypsin hydrolysis | – | –
CCCCCCCCCCCCOS(=O)(=O)[O-].[Na+] [SDS, sodium dodecyl sulfate] | – | – | rate of trypsin autolysis (R as a function of time) ([1]; 0.5 mM compound): significant increase in the rate of trypsin hydrolysis
